Experimental data published in US5258300A, “Method of inducing lysine overproduction in plants” (Molecular Genetics Research and Development Limited …, priority 1988, dated 1993).

Assays:
[1] = system: leaf disks from plant 327; assay: Leaf disk AEC screen, dap A+ plant 327; assay type: cell-based, Nicotiana tabacum SR1
Experimental: (§1) Plant tissue was initially screened for expression of the introduced dap A gene by evaluating resistance to the lysine analog S(2-aminoethyl)cysteine(AEC). AEC is a potent inhibitor of dihydrodipicolinic acid synthase of plants, but the bacterial DHDPS is much less sensitive to it. Leaf disks were prepared from surface-sterilized leaves as described in the transformation protocol. The disks were placed, (four disks per plate, two plates per treatment) on shooting medium supplemented with 1 mM L-arginine and AEC at 0, 0.1, 0.2 or 0.4 mM. Plates containing shooting medium supplemented with 75 μg/ml kanamycin were included for each plant tested to check the selectable marker. After one week at 26° C. in the light, the individual leaf disks were weighed and the average fresh weight and standard deviation were determined for each treatment.

[2] = system: leaf disks from water control plant 101; assay: Leaf disk AEC screen, water control plant 101; assay type: cell-based, Nicotiana tabacum SR1
Experimental: as §1

[3] = system: seedlings of self-pollinated 327; assay: AEC resistance in seedlings, progeny of 327; assay type: in vivo, Nicotiana tabacum SR1; conditions: Nicotiana tabacum, 336 h, two weeks postplating, read-out: Avg. Root Length
Experimental: (§2) Tobacco plant 327 flowered and was allowed to self-pollinate and produce seed. Mature, dry seed was collected, surface-sterilized with 10% bleach, and rinsed well with sterile water. Seeds were plated (50 seeds per plate, two plates per treatment) on gridded germination plates (1/4 MS salts, 2.5 gm/l Gelrite) containing AEC at 0, 1, 10, 30, 100 and 300 μM AEC. Seeds from self-pollinated 101 were treated identically as controls. All seeds germinated in 3-4 days. After 10 days, the number of green seedlings on each plate was counted. After two weeks, the seedlings were gently pulled from the Gelrite and root lengths were measured.

[4] = system: seedlings of self-pollinated 101; assay: AEC resistance in seedlings, progeny of 101; assay type: in vivo, Nicotiana tabacum SR1; conditions: Nicotiana tabacum, 336 h, two weeks postplating, read-out: Avg. Root Length
Experimental: as §2

[5] = system: DHDP synthase activity in the leaves of 327; assay: DHDP synthase activity (o-aminobenzaldehyde assay) in leaf extracts of 327; assay type: biochemical, Nicotiana tabacum SR1 (E. coli dap A gene); conditions: 327 leaf extract
Experimental: (§3) Young leaves of 327 and seed-grown NT-SR1 plants were extracted as follows. One to two grams of deribbed leaves were ground at 4° C. in 2 ml extraction buffer (0.1M potassium phosphate (pH 7.5 at 4° C.), 2 mM EDTA, 1 mM β-mercaptoethanol, 10 mM sodium pyruvate) in the presence of 0.14 gm polyvinylpyrrolidone per gram of tissue. The extract was filtered through Miracloth (Calbiochem) and then centrifuged for 10 minutes at 8000×g (4° C.). The supernatant was slowly brought to 40% saturation by adding finely ground solid ammonium sulfate at 4° C. with gentle stirring. The precipitate was removed by centrifugation. The supernatant was brought to 66% ammonium sulfate saturation and the 40-66% precipitate was collected by centrifugation as before. The pellet was resuspended in column buffer (50 mM Tris-HCl (pH 7.5 at 4° C.), 1 mM EDTA, 10 mM sodium pyruvate, 10% glycerol) and passed through a Sephadex G-25 column (Sigma) to desalt.
(§4) Protein concentrations were determined by the dye-binding method of Bradford (REF) using bovine serum albumin fraction V powder in distilled water as the standard.
(§5) Dihydrodipicolinic acid synthase activity was monitored using the o-aminobenzaldehyde (ABA) assay (Yugari et al., J. Biol. Chem., 240, 4710-4716 (1965)). […] The pink color was allowed to develop for one hour at 25° C. and then the optical density was measured at 520 nm.

[6] = molecular target: T1, DHDP synthase activity in NT-SR1 leaves (Nicotiana tabacum, UniProt Q42948); assay: DHDP synthase activity (o-aminobenzaldehyde assay) in leaf extracts of seed-grown NT-SR1; assay type: biochemical; conditions: NT-SR1 leaf extract
T1 construct: Young leaves of 327 and seed-grown NT-SR1 plants were extracted as follows; from tissue; host or cells: young leaves of seed-grown NT-SR1 plants, 40-66% ammonium sulfate fraction of the leaf extract
T1 sequence (Q42948 34-359): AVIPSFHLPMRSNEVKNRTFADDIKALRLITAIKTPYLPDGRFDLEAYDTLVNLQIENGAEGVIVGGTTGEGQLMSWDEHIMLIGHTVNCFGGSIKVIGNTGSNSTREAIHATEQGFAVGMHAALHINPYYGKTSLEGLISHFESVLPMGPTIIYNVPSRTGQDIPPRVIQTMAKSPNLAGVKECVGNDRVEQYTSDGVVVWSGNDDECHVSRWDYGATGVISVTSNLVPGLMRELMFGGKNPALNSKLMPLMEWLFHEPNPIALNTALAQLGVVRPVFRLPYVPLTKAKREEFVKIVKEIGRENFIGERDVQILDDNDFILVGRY
Experimental: as §3, §4, §5

[7] = system: Dihydrodipicolinic acid synthase; conditions: in vitro; cited from earlier work

Work on `NCCSCC(N)C(=O)O` (stereo not drawn) [AEC, S(2-aminoethyl)cysteine] yielded an activity at 100 µM ([1]; Nicotiana tabacum, foliar, 168 h, AEC 0.1 mM, plant 327 leaf disks, after one week, read-out: Fresh Weight) of 88%, an activity at 200 µM ([1]; Nicotiana tabacum, foliar, 168 h, AEC 0.2 mM, plant 327 leaf disks, after one week, read-out: Fresh Weight) of 81% and an activity at 400 µM ([1]; Nicotiana tabacum, foliar, 168 h, AEC 0.4 mM, plant 327 leaf disks, after one week, read-out: Fresh Weight) of 71%. The “Leaf disk growth in the presence of AEC” value ([1]; putative dap A+ plants) was “remain green and growing”, the activity at 100 µM ([2]; Nicotiana tabacum, foliar, 168 h, AEC 0.1 mM, plant 101 leaf disks, after one week, read-out: Fresh Weight) was 32% and the activity at 200 µM ([2]; Nicotiana tabacum, foliar, 168 h, AEC 0.2 mM, plant 101 leaf disks, after one week, read-out: Fresh Weight) was 15%. For the same molecule, the activity at 400 µM ([2]; Nicotiana tabacum, foliar, 168 h, AEC 0.4 mM, plant 101 leaf disks, after one week, read-out: Fresh Weight) was 10%, the “Leaf disk growth in the presence of AEC” value ([2]; control plants) was “strongly inhibited” and the Leaf disk appearance ([2]; control plants, medium containing at least 0.2 mM AEC) was “brown and shriveled”. It also gave an activity at 1 µM ([3]; AEC 1 μM) of 111%, an activity at 3 µM ([3]; AEC 3 μM) of 87% and an activity at 10 µM ([3]; AEC 10 μM) of 51%. The activity at 30 µM ([3]; AEC 30 μM) was 46%, the activity at 100 µM ([3]; AEC 100 μM) was 21% and the activity at 1 µM ([4]; AEC 1 μM) was 46%. The activity at 3 µM ([4]; AEC 3 μM) was 33%, the activity at 10 µM ([4]; AEC 10 μM) was 27% and the activity at 30 µM ([4]; AEC 30 μM) was 18%. It also gave an activity at 100 µM ([4]; AEC 100 μM) of 0%.

For `NCCCC[C@H](N)C(=O)O` [L-lysine], the “Inhibition of DHDP synthase activity” value ([5]; 100 μM L-lysine) was “completely resistant”, the “Inhibition of DHDP synthase activity” value ([5]; 500 μM L-lysine) was 14% and the inhibition at 100 µM ([6]; 100 μM L-lysine) was 87%. For the same molecule, the “Inhibition of DHDP synthase activity” value ([6]; 500 μM L-lysine) was “no activity could be detected” and the “Lower sensitivity of E. coli DHDPS to inhibition by lysine compared to the same enzyme from plants” value [7] was “at least 200 fold”.
